Measurements as given in patent US5892045A, “4-aryl-3-hydroxyquinolin-2-one derivatives as ion channel modulators” (priority 1997, dated 1999).

Tested on: BK channel
Assay: not given
Conditions: very limited electrophysiological experiments; Laurent 1993; cited from earlier work

Row | Compound | BK channel opening activity
1 | CNc1nc(Br)cn2cc(C#N)nc12 [SCA-40, 6-Bromo-8-(methylamino) imidazo[1,2-a]pyrazine-2-carbonitrile] | BK channel opener

Tested on: BK channel
Assay: not given
Conditions: Galvez 1990; cited from earlier work

Row | Compound | BK channel block
2 | iberiotoxin: specific and potent BK channel-blocking toxin iberiotoxin (IBTX) (QFTDVDCSVSKECWSVCKDLFGVDRGKCMGKKCRCYQ; UniProt P24663 1-37, looked up) | specific and potent BK channel-blocking toxin

Tested on: cloned mammalian (mSlo or hSlo) BK channels expressed in Xenopus oocytes
Assay: Increase of cloned BK-mediated outward current, two-electrode voltage clamp in Xenopus oocytes (IBTX-sensitive current)
Type: cell-based
Conditions: at 20 μM expressed as percent of controls; at least 5 oocytes
Description: The ability of compounds described in the present invention to open BK channels and increase whole-cell outward (K^+) BK-mediated currents was assessed under voltage-clamp conditions by determining their ability to increase cloned mammalian (mSlo or hSlo) BK-mediated outward current heterologously expressed in Xenopus oocytes [Butler, A., et al., Science, 261: 221-224 (1993); and Dworetzky, S. I., et al., Mol. Brain Res., 27: 189-193 (1994)]. The two BK constructs employed represent nearly structurally identical homologous proteins, and have proven to be pharmacologically identical in our tests. […] The relative contribution of BK channels current to total outward current was determined by subtraction of the current remaining in the presence of IBTX (non-BK current) from the current profiles obtained in all other experimental conditions (control, drug, and wash). […] All compounds were tested in at least 5 oocytes and are reported at the single concentration of 20 μM; the effect of the selected compounds of Formula I on BK current was expressed as the percent of control IBTX-sensitive current and is listed in Table I. Recordings were accomplished using standard two-electrode voltage clamp techniques [Stuhmer, W., et al., Methods in Enzymology, Vol. 207: 319-339 (1992)]; voltage-clamp protocols consisted of 500-750 ms duration step depolarization from a holding potential of -60 mV to +140 mV in 20 mV steps. The experimental media (modified Barth's solution) consisted of (in mM): NaCl (88), NaHCO3 (2.4), KCl (1.0), HEPES (10), MgSO4 (0.82), Ca(NO3)2 (0.33), CaCl2 (0.41); pH 7.5.

Row | Compound | BK Current (percent of control IBTX-sensitive current)
3 | O=c1[nH]c2cc(C(F)(F)F)ccc2c(-c2cc(Cl)ccc2O)c1O [Example 10] | ++ (>150%)
4 | O=c1[nH]c2cc(Cl)cc(Cl)c2c(-c2cc(Cl)ccc2O)c1O [Example 2, 5,7-Dichloro-4-(5-chloro-2-hydroxyphenyl)-3-hydroxy-2(1H)-quinolinone] | ++ (>150%)
5 | COc1ccc(Br)cc1-c1c(O)c(=O)[nH]c2ccc([N+](=O)[O-])cc12 [Example 3] | + (100-150%)
6 | O=c1[nH]c2ccc([N+](=O)[O-])cc2c(-c2cc(Br)ccc2O)c1O [Example 9] | ++ (>150%)
7 | COc1ccc(Cl)cc1-c1c(O)c(=O)[nH]c2cc(Cl)ccc12 [Example 5] | + (100-150%)
8 | Cn1c(=O)c(O)c(-c2cc(Cl)ccc2O)c2c(Cl)cc(Cl)cc21 [Example 18] | ++ (>150%)
9 | O=c1[nH]c2ccc(C(F)(F)F)cc2c(-c2cc(Br)ccc2O)c1O [Example 17] | ++ (>150%)
10 | O=c1[nH]c2c(Cl)cccc2c(-c2cc(Cl)ccc2O)c1O [Example 21] | + (100-150%)
11 | O=c1[nH]c2ccc(Br)cc2c(-c2cc(Cl)ccc2O)c1O [Example 20] | ++ (>150%)
12 | O=c1[nH]c2cccc(Cl)c2c(-c2cc(Cl)ccc2O)c1O [Example 14] | + (100-150%)
13 | O=c1[nH]c2ccccc2c(-c2cc(Br)ccc2O)c1O [Example 6] | + (100-150%)
14 | O=c1[nH]c2cc(C(F)(F)F)ccc2c(-c2cc(Br)ccc2O)c1O [Example 11] | ++ (>150%)
15 | COc1ccc(Br)cc1-c1c(O)c(=O)[nH]c2cc(Cl)cc(Cl)c12 [Example 4] | ++ (>150%)
16 | O=c1[nH]c2ccc(Br)cc2c(-c2cc(Br)ccc2O)c1O [Example 19] | ++ (>150%)
17 | Cn1c(=O)c(O)c(-c2cc(Br)ccc2O)c2ccccc21 [Example 7] | + (100-150%)
18 | O=c1[nH]c2cc(Cl)cc(Cl)c2c(-c2cc(Br)ccc2O)c1O [Example 12] | ++ (>150%)
19 | O=c1[nH]c2ccc(C(F)(F)F)cc2c(-c2cc(Cl)ccc2O)c1O [Example 16] | ++ (>150%)
20 | O=c1[nH]c2ccc(Cl)cc2c(-c2cc(Cl)ccc2O)c1O [Example 13] | + (100-150%)
21 | O=c1[nH]c2cc(Cl)ccc2c(-c2cc(Cl)ccc2O)c1O [Example 15] | ++ (>150%)
22 | O=c1[nH]c2ccccc2c(-c2cc(Cl)ccc2O)c1O [Example 8] | + (100-150%)

Tested on: Ca^2+ -activated potassium channels
Assay: not given
Conditions: outside-out patches, myelinated nerve fibers; Koh 1994; cited from earlier work

Row | Compound | open probability of Ca^2+ -activated potassium channels
23 | O=C(CCc1ccc(O)cc1)c1c(O)cc(O)cc1O [Phloretin] | increase the open probability
